The values that follow come from patent US10766857B2, “Compound having BLT inhibitory activity and composition, for preventing or treating inflammatory diseases, comprising same as active ingredient” (DONGGUK UNIVERSITY INDUSTRY-ACADEMIC COOPERATION FOUNDATION, priority 2015, dated 2020).

Assay [1] concerns the target T1, BLT2-expressing cells (CHO-BLT2 cells) (Homo sapiens, UniProt Q9NPC1).
T1 construct: HA; expressed in transfected cells
T1 sequence (Q9NPC1 with tags, fused parts or gaps): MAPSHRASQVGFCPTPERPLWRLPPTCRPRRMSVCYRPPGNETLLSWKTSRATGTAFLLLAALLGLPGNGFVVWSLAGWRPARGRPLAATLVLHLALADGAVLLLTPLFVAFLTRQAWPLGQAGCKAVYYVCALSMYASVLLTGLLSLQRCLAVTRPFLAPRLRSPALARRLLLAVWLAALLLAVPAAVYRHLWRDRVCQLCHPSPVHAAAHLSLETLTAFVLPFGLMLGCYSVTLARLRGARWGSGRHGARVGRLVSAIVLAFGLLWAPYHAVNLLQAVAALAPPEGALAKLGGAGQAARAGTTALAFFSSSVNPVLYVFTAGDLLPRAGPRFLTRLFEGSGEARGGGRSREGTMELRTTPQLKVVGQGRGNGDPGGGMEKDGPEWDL
Description: MTT cell growth of LTB4-stimulated BLT2-expressing cells. As to conditions: LTB4 300 nM; for inhibition at 10 µM: read-out: growth inhibitory effect; for cell growth compared with the control DMSO: pre-treated at 10 μM. Format: cell-based. As for the experimental part:
Cell viability according to treatment of the compounds prepared in the examples were measured by a 3-(4,5-dimethylthiazol-2-yl)-2,5-diphenyltetrazolium bromide (MTT) method.
More specifically, 1×10^4 each of the BLT2-nonexpressing cells (CHO-pcDNA3.1 cells) and BLT2-expressing cells (CHO-BLT2 cells), which were prepared in Experimental Example 1, were dispensed in a […], and cultured for 24 hours. Afterward, the culture medium was removed, a serum-free RPMI medium was added, and after two hours, the cells were pre-treated with each of the compound prepared in one of the examples (10 μM), 10 μM DMSO (compound solvent) as a control, and 10 μM 1-[5-ethyl-2-hydroxy-4-[[6-methyl-6-(1H-tetrazol-5-yl)heptyl]oxy]phenyl]-ethanone (LY255283; Cayman) as a positive control for 1 hour. Subsequently, after treatment of LTB4 (300 nM), the cells were cultured for 24 hours. 20 μL of an MTT solution (5 mg/mL, Sigma-Aldrich) was added to each well, the cells were cultured in a humid CO2 incubator at 37° C. for 4 hours, a supernatant was removed, and 200 μL of DMSO was added to each well to dissolve insoluble violet formazan crystals. Absorbance was measured using a microplate reader (Molecular Devices, Sunnyvale, Calif.) at 550 nm, and the measurement was repeated three times.

Assay [2] concerns asthma-induced mice (OVA+LPS). Nature of the assay: OVA+LPS-induced severe asthma mice: AHR and cell influx. Format: in vivo. As to conditions: 10 mg/kg, airway constrictor 50 mg/ml. From the text: Mast cells play a pivotal role in the initial reaction to asthma, and when an allergen enters the body from the outside through an airway, the mast cells are activated, thereby secreting various cytokines (interleukin-4 and interleukin-13). Due to the cytokines, the influx of inflammatory cells, the generation of mucus and the airway contraction occur. The inventors used 7-week-old (18 to 20 g) female BALB/c mice provided by Orient (Seoungnam, Korea) for the experiment to confirm the antiasthma effect, and then the asthma was induced in the mice. On the first and 14th days, 2.5 mg of an adjuvant, aluminum hydroxide gel (alum; Pierce, Rockford, Ill.) was included in […] of ovalbumin (OVA) to intraperitoneally sensitize female […] mice. On the 21st, 22nd and 23rd days of two initial sensitizations, 1% OVA was sprayed into the mice using an ultrasonic nebulizer. The compound of the present invention (LMT-696; 5 mg/kg), LY255283 (5 mg/kg, Cayman) or DMSO was intraperitoneally injected at the 1 hour before the 1% OVA spraying. On the 24th day of the initial sensitization, airway hyperresponsiveness (AHR) was detected, and on the 25th day, the mice were dissected to observe asthma phenotypes, for example, inflammatory cytokine IL-4 expression and the influx of inflammatory cells (neutrophils). In the case of lipopolysaccharide (LPS)-induced severe asthma animal models, on the 0, 1st, 2nd and 7th days, 75 μg of OVA and 1 mg of LPS were intranasally injected into Balb/c mice for sensitization. On the 14th, 15th, 21th and 22th days, 50 μg of OVA was injected into the nose for a challenge. The compound of the present invention (LMT-1013) (1, 3, 10 or 30 mg/kg), montelukast (10 mg/kg, DRS) or a control buffer (10% DMA, 5% Tween 80, 85% brine) were treated one hour before the challenge by injecting 50 μg of OVA into the nose. On the 23rd day of the initial sensitization, AHR was detected, and on the 24th day, the mice were dissected to observe a severe asthma phenotype, for example, the influx of the inflammatory cells (neutrophils). In addition, the AHR detection was performed after an airway constrictor, methacholine (6.25 to 50 mg/ml depending on conditions), was administered to the mice. The administration of the airway constrictor was performed by spraying through an inlet of the chamber using an ultrasonic nebulizer for 3 minutes. The AHR was analyzed using an enhanced pause as the indicator of the asthma phenomenon. Bronchoalveolar lavage fluid cell counts were quantified by counting cells under an optical microscope (magnification, 200×). In each analysis, 4 fields were subjected to counting, each sample was analyzed twice, and the analysis was repeated three times.

The target of another assay is T2, BLT1 (Homo sapiens, UniProt Q15722).
T2 construct: expressed in transfected cells; host or cells: CHO cells stably expressing BLT1 (CHO-BLT1)
Description: LTB4-induced chemotactic motility, Transwell, CHO-BLT1 cells. Format: cell-based. As to conditions: 10 μM pre-treatment, LTB4 10 nM. On the procedure:
(§1) Chemotactic motility was analyzed using a Transwell chamber including a polycarbonate filter (8-μm pore size, Corning Costar) with a 6.5-mm diameter. Specifically, the lower surface of the filter was coated with 10 μg/mL fibronectin in a serum-free RPMI 1640 medium at 37° C. for 1 hour. The experiment was performed by placing the filter dried and coated with RPMI 1640 media containing various amounts of LTB4 in the lower wells of the Transwell chamber, and loading CHO cells stably expressing BLT1 and BLT2 into the upper wells containing serum-free RPMI 1640 media finally at 2×10^4 cells/100 μL. To evaluate the effect of inhibitors, the cells were pre-treated with each inhibitor for 30 minutes before dispensing. After the cells were cultured at 37° C. in 5% CO2 for 3 hours, the filters were fixed with methanol for 3 minutes, and stained with hematoxylin and eosin for 10 minutes. In the experiment, the cells were BLT2-expressing cells (CHO-BLT2 cells) and BLT1-expressing cells (CHO-BLT1 cells), and LY255283 and U75302 were used as positive controls for each type of the cells, and BLT2 ligand LTB4, (300 nM), BLT1 ligand LTB4 (10 nM), and lysophosphatidic acid (LPA; 100 nM) were used as comparative controls. The chemotactic motility was quantitatively analyzed by counting the cells on the lower side of the filter under an optical microscope (magnification, 200×). For each analysis, 6 fields were subjected to counting, each sample was analyzed twice, and the analysis was repeated three times.

The next assay addresses T3, BLT2 (Homo sapiens, UniProt Q9NPC1).
T3 construct: HA; expressed in transfected cells
T3 sequence (Q9NPC1 with tags, fused parts or gaps): T1 sequence (Q9NPC1 with tags, fused parts or gaps)
Description: LTB4-induced chemotactic motility, Transwell, CHO-BLT2 cells. As to conditions: LTB4 300 nM; for inhibition at 10 µM: read-out: chemotactic motility inhibited compared with LTB4 (DMSO+). Type of assay: cell-based. As for the experimental part: as §1

In assay [3] the test system is cancer cells (MDA-MB-231). Description: Metastasis of breast cancer cells in nude mice. Type of assay: in vivo. As to conditions: MDA-MB-231 in nude mice, i.p.; LMT-696 and LY255283 2.5 mg/kg, U75302 0.25 mg/kg; 15 weeks. As for the experimental part:
An experiment for the metastasis of breast cancer cells according to the treatment of the compound of the present invention was approved by the Ethics Committee of Korea University, and all experimental animals used in this experiment were treated according to the approved guidelines of the Korea University Animal Care and Use Committee. Six-week-old female nude mice (Charles River, Wilmington, Mass.) were injected with cancer cells to confirm cancer cell metastasis. The breast cancer cells were pre-treated with the compound of the present invention (LMT-696, 10 μM), LY255283, U75302 and DMSO, and 24 hours later, harvested with trypsin-EDTA, resuspended in PBS, and then 2×10^6 of the breast cancer cells were intraperitoneally injected into mice anesthetized with zoletil (50 mg/kg). After five days, the compound of the present invention (LMT-696; 2.5 mg/kg), LY255283 (2.5 mg/kg), U75302 (0.25 mg/kg) and DMSO were injected intraperitoneally three times every five days. At 15 weeks after the injection of the breast cancer cells, the mice were dissected to observe the cancer cell metastasis.

T2 sequence (Q15722 whole entry, species assumed): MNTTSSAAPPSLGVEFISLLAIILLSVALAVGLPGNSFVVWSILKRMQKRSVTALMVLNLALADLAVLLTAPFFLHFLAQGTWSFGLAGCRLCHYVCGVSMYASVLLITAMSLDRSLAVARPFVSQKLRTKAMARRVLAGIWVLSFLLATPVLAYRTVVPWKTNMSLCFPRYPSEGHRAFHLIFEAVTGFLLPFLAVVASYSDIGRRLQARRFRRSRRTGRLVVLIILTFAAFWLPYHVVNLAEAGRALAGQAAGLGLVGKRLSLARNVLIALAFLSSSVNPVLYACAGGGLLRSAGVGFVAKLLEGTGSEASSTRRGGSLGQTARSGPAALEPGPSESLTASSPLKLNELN

Consider `CCCCC(=O)N(CC#Cc1ccc(C(=O)NCCN(C)C)cc1)c1ccccc1` [LMT-1016, N-(2-(dimethylamino)ethyl)-4-(3-(N-phenylpentaneamido)prop-1-yn-1-yl)benzamide], for which the inhibition at 10 µM in assay [1] turned out to be 99%.
Regarding `CCCCC(=O)N(CC#Cc1cccc(C(=O)N2CCN(C(C)C)CC2)c1)c1ccccc1` [LMT-842, N-(3-(3-(4-isopropylpiperazine-1-carbonyl)phenyl)prop-2-ynyl)-N-phenylpentaneamide], the inhibition at 10 µM in assay [1] amounted to 70%.
As to `CC(C)(O)c1ccccc1CC[C@@H](SCC1(CC(=O)O)CC1)c1cccc(/C=C/c2ccc3ccc(Cl)cc3n2)c1` [montelukast, reference compound], the AHR reduced in assay [2] is listed as 64%.
For the compound `CCCCC(=O)N(CC#Cc1ccc(C(=O)N2CCN(C)CC2)cc1)c1ccccc1` [LMT-692, N-(3-(4-(4-methylpiperazine-1-carbonyl)phenyl)prop-2-ynyl)-N-phenylpentanamide], the “cell growth compared with the control DMSO” value in assay [1] is 88.0%. Further, the “inhibitory effect on chemotactic motility” value at BLT1 is “did not exhibit the inhibitory effect”. Further, the inhibition at 10 µM at BLT2 (10 μM pre-treatment) was determined as 66%. In addition, the IC50 on BLT2 (serum-free, read-out: IC50 of chemotactic motility inhibition) came out at 7.57 µM.
`CCCCC(=O)N(CC#Cc1ccc(C(=O)N2CCN(C(C)C)CC2)cc1)c1cccc(F)c1` [LMT-886, N-(3-fluorophenyl)-N-(3-(4-(4-isopropylpiperazine-1-carbonyl)phenyl)prop-2-ynyl)pentaneamide]: in assay [1], the inhibition at 10 µM is 99%.
`CCCCC(=O)N(CC#Cc1ccc(C(=O)NC(C)C(=O)O)cc1)c1ccccc1` (stereo not drawn) [LMT-1019, 2-(4-(3-(N-phenylpentaneamido)prop-1-yn-1-yl)benzamido)propanoic acid]: in assay [1], the inhibition at 10 µM came out at 99%.
On to `CCc1cc(C(C)=O)c(O)cc1OCCCCCC(C)(C)c1nnn[nH]1` [LY255283, 1-[5-ethyl-2-hydroxy-4-[[6-methyl-6-(1H-tetrazol-5-yl)heptyl]oxy]phenyl]-ethanone, reference compound], for which, in assay [3], the “metastasis of the cancer cells inhibited as compared with the control” value amounted to 36%. Moreover, in assay [1], the “cell growth compared with the control DMSO” value is on record as “approximately 90%”. The “chemotactic motility as compared with cells treated with the ligand LTB4” value at BLT2 (10 μM pre-treatment) was 90%.
Regarding `CCCCC(=O)N(CC#Cc1ccc(C(=O)NC(C)C(=O)OC)cc1)c1ccccc1` (stereo not drawn) [LMT-1018, methyl 2-(4-(3-(N-phenylpentaneamido)prop-1-yn-1-yl)benzamido)propanoate], in assay [1], the inhibition at 10 µM was 71.6%.
With `CCCCC(=O)N(CC#Cc1ccc(C(=O)N2CCNCC2)cc1)c1ccccc1` [LMT-694, N-phenyl-N-(3-(4-(piperazine-1-carbonyl)phenyl)prop-2-ynyl)pentanamide], in assay [1], the “cell growth compared with the control DMSO” value came to 16.7%. The “inhibitory effect on chemotactic motility” value at BLT1 was “did not exhibit the inhibitory effect”. In addition, at BLT2 (10 μM pre-treatment), the inhibition at 10 µM is 90%.
For `CCCCC(=O)N(CC#Cc1cccc(C(=O)N2CCNCC2)c1)c1ccccc1` [LMT-837, N-phenyl-N-(3-(3-(piperazine-1-carbonyl)phenyl)prop-2-ynyl)pentaneamide], the inhibition at 10 µM in assay [1] stood at 65%.
As for `CCCCC/C=C\C[C@@H](O)/C=C/c1cccc(C[C@@H](O)CCCCO)n1` [U75302, reference compound], the “metastasis of the cancer cells inhibited as compared with the control” value in assay [3] is on record as “not inhibited”. For the same compound, at BLT1, the “chemotactic motility as compared with cells treated with the ligand LTB4” value turned out to be 90%.
As to `CCCCC(=O)N(CC#Cc1ccc(C(=O)N(CC)CC)cc1)c1ccccc1` [LMT-883, N,N-diethyl-4-(3-(N-phenylpentaneamido)prop-1-ynyl)benzamide], the inhibition at 10 µM in assay [1] stood at 99%.
Consider `CCCCC(=O)N(CC#Cc1ccc(C(=O)N2CCN(C(C)C)CC2)cc1)c1ccc(F)cc1` [LMT-841, N-(4-fluorophenyl)-N-(3-(4-(4-isopropylpiperazine-1-carbonyl)phenyl)prop-2-ynyl)pentaneamide], for which the inhibition at 10 µM in assay [1] turned out to be 60%.
